Results reported in publication PMC10461478, “The chemical profiling of Salvia plebeia during different growth periods and the biosynthesis of its main flavonoids ingredients” (Frontiers in Plant Science, 2023).

How the values were obtained:
SpCHS1 = molecular target: T1, SpCHS1 (Salvia plebeia, UniProt A0AA50A905); assay: HPLC-DAD / UPLC-Q-TOF-MS of E. coli culture extract; type: cell-based; conditions: substrate formed in situ by co-expressed RtTAL and Pt4CL from fed tyrosine; product naringenin chalcone
T1 construct: gene CHS1; ORF in pET28a, co-expressed in E. coli with RtTAL and Pt4CL (substrate supply)
T1 sequence (A0AA50A905 1-390): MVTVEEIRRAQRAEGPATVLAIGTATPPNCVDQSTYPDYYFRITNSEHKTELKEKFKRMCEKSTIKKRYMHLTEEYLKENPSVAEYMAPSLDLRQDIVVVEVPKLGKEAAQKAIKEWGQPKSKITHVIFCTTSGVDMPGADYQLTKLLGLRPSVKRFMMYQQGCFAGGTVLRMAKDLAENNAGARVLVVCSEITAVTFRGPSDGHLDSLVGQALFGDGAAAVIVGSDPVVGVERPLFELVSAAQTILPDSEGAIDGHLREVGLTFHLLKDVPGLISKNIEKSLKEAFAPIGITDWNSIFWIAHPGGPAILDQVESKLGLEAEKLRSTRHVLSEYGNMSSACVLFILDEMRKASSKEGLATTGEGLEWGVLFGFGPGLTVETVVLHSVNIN

SpF6H1 = molecular target: T2, SpF6H1 (Salvia plebeia, UniProt A0AA49X7K6); assay: HPLC-DAD / UPLC-Q-TOF-MS product detection; type: biochemical; conditions: 1 mM NADPH, 0.5 mM GSH, 100 mM Tris-HCl, 28 °C, 12 h; AtCPR co-expressed; product scutellarein
T2 construct: gene F6H1; ORF in pET32a (Trx/His tag), E. coli; co-expressed with AtCPR; with NADPH--cytochrome P450 reductase (Arabidopsis thaliana)
T2 sequence (A0AA49X7K6 1-521): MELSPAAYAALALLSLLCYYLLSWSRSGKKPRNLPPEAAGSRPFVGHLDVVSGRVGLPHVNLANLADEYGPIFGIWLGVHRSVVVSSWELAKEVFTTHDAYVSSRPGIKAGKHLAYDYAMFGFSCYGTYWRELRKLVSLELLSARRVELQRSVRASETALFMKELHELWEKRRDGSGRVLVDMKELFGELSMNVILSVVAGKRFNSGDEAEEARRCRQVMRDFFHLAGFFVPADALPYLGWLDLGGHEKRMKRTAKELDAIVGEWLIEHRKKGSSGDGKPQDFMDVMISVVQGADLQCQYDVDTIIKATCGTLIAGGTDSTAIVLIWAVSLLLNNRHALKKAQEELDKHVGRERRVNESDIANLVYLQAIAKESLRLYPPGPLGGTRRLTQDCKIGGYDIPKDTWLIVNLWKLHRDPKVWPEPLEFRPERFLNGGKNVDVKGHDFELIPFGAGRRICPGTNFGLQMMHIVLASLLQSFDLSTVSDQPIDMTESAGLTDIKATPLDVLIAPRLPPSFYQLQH

SpC4H = molecular target: T3, SpC4H (Salvia plebeia, UniProt A0AA50AF12); assay: HPLC-DAD / UPLC-Q-TOF-MS product detection; type: biochemical; conditions: 1 mM NADPH, 0.5 mM GSH, AtCPR added, 100 mM Tris-HCl, 28 °C, 12 h; product 4-coumaric acid
T3 construct: gene C4H; ORF in pET32a (Trx/His tag), E. coli BL21(DE3), Ni-NTA purified; AtCPR added; with NADPH--cytochrome P450 reductase (Arabidopsis thaliana)

SpUGT1 = molecular target: T4, SpUGT1 (Salvia plebeia, UniProt A0AA49X7M2); assay: HPLC-DAD / UPLC-Q-TOF-MS product detection; type: biochemical; conditions: 1 mM UDP-glucose, 50 mM PBS, 30 °C, 4 h; product homoplantaginin
T4 construct: gene UGT1; ORF in pSJ8-MBP (MBP fusion), E. coli BL21(DE3), Ni-NTA purified
T4 sequence (A0AA49X7M2 1-450): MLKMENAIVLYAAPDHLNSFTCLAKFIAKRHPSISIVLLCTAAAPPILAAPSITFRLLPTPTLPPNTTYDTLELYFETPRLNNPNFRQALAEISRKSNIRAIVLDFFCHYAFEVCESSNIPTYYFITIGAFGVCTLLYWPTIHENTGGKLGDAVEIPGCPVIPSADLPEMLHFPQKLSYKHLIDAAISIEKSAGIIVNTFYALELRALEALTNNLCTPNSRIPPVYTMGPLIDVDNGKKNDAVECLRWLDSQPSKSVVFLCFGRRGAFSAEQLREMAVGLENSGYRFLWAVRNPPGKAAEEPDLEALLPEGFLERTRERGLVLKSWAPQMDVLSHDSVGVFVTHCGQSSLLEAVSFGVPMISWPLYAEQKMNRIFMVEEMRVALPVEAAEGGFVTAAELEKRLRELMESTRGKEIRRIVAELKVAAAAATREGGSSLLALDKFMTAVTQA

SpUGT2 = molecular target: T5, SpUGT2 (Salvia plebeia, UniProt A0AA49XCW5); assay: HPLC-DAD / UPLC-Q-TOF-MS product detection; type: biochemical; conditions: 1 mM UDP-glucose, 50 mM PBS, 30 °C, 4 h; product homoplantaginin
T5 construct: gene UGT2; ORF in pSJ8-MBP (MBP fusion), E. coli BL21(DE3), Ni-NTA purified
T5 sequence (A0AA49XCW5 1-478): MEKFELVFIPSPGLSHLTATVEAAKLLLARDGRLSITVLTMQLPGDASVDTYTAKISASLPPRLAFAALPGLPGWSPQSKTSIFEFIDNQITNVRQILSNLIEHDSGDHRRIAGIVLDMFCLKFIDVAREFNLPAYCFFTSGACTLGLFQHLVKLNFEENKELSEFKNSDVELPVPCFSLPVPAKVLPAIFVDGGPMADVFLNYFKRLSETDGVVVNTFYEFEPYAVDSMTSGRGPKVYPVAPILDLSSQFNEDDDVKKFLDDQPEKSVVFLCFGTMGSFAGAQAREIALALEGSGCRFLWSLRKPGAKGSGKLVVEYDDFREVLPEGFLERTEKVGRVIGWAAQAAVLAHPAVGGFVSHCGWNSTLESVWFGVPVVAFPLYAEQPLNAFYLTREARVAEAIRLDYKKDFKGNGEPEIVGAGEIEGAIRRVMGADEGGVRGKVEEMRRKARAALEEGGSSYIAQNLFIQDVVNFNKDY

SpUGT3 = molecular target: T6, SpUGT3 (Salvia plebeia, UniProt A0AA49X848); assay: HPLC-DAD / UPLC-Q-TOF-MS product detection; type: biochemical; conditions: 1 mM UDP-glucose, 50 mM PBS, 30 °C, 4 h; product homoplantaginin
T6 construct: gene UGT3; ORF in pSJ8-MBP (MBP fusion), E. coli BL21(DE3), Ni-NTA purified
T6 sequence (A0AA49X848 1-469): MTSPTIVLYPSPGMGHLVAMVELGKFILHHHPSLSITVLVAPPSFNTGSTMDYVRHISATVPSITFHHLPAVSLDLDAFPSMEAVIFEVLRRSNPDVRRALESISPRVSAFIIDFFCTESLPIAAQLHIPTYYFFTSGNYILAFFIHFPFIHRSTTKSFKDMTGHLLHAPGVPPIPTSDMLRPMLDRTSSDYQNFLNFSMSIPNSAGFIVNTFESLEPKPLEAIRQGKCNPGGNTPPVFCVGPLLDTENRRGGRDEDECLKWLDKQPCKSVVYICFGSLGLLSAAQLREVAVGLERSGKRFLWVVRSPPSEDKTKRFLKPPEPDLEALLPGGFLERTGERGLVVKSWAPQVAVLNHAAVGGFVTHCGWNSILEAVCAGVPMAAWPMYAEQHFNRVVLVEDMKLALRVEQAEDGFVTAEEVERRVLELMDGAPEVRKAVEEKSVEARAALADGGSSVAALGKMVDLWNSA

SpCHI = molecular target: T7, SpCHI (Salvia plebeia, UniProt A0AA49X7E2); assay: HPLC-DAD / UPLC-Q-TOF-MS product detection; type: biochemical; conditions: 100 mM PBS, 25 °C, 2 s; product naringenin
T7 construct: gene CHI; full ORF in pET28a (His tag), E. coli BL21(DE3), Ni-NTA purified
T7 sequence (A0AA49X7E2 1-225): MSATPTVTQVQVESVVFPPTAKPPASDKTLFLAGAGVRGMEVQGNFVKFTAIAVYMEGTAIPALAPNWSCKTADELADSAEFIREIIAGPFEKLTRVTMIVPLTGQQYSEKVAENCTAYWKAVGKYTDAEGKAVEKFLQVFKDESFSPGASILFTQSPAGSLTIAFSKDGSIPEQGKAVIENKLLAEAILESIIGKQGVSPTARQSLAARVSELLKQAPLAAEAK

SpFNS = molecular target: T8, SpFNS (Salvia plebeia, UniProt A0AA49X7D7); assay: HPLC-DAD / UPLC-Q-TOF-MS product detection; type: biochemical; conditions: 1 mM NADPH, 0.5 mM GSH, 100 mM Tris-HCl, 28 °C, 12 h; AtCPR co-expressed; product apigenin
T8 construct: gene FNS

SpPAL = molecular target: T9, SpPAL (Salvia plebeia, UniProt A0AA50AET4); assay: HPLC-DAD / UPLC-Q-TOF-MS product detection; type: biochemical; conditions: 100 mM Tris-HCl, 37 °C, 8 h; product cinnamic acid
T9 construct: gene PAL; full ORF in pET28a (His tag), E. coli BL21(DE3), Ni-NTA purified

SpF6OMT2 = molecular target: T10, SpF6OMT2 (Salvia plebeia, UniProt A0AA49X7F5); assay: HPLC-DAD / UPLC-Q-TOF-MS product detection; type: biochemical; conditions: 1 mM SAM, 1 mM MgCl2, 1 mM DTT, 100 mM Tris-HCl, 28 °C, 12 h; product hispidulin
T10 construct: gene F6OMT2; full ORF in pET28a (His tag), E. coli BL21(DE3), Ni-NTA purified

SpF6OMT1 = molecular target: T11, SpF6OMT1 (Salvia plebeia, UniProt A0AA49X7D9); assay: HPLC-DAD / UPLC-Q-TOF-MS product detection; type: biochemical; conditions: 1 mM SAM, 1 mM MgCl2, 1 mM DTT, 100 mM Tris-HCl, 28 °C, 12 h; product hispidulin
T11 construct: gene F6OMT1; full ORF in pET28a (His tag), E. coli BL21(DE3), Ni-NTA purified
T11 sequence (A0AA49X7D9 1-222): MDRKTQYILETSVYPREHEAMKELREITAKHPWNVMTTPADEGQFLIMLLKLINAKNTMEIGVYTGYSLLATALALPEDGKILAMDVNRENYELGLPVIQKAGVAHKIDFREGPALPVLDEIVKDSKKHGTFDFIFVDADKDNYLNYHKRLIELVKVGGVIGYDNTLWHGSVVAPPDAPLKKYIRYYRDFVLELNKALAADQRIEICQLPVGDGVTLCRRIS

T8 sequence (A0AA49X7D7 1-507): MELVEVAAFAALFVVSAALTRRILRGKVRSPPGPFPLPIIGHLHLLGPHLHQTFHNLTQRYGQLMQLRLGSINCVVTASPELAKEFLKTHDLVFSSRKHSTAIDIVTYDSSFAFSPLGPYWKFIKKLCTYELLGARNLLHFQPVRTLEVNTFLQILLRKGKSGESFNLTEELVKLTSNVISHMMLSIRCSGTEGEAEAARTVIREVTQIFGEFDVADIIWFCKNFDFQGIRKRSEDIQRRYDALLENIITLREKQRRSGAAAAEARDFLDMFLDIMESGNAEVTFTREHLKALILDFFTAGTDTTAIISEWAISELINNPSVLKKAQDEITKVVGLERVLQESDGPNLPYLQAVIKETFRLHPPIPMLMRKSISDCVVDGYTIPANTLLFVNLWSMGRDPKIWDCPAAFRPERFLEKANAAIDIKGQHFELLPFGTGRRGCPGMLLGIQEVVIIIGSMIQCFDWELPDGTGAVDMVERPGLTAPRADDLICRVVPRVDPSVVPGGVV
T3 sequence (A0AA50AF12 entry or part of it): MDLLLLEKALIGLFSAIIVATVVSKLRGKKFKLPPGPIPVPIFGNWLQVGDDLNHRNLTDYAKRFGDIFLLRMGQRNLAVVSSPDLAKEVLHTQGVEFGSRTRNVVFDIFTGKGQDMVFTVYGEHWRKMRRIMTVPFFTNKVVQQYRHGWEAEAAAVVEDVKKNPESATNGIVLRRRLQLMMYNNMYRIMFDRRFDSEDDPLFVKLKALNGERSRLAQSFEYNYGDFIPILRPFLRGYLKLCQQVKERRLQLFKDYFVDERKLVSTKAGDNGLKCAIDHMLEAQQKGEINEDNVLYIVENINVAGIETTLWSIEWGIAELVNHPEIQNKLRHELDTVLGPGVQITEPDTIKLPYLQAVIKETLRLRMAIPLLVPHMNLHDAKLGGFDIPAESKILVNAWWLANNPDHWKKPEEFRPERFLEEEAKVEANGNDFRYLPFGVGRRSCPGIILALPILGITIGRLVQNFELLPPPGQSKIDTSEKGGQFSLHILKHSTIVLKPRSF
T9 sequence (A0AA50AET4 1-710): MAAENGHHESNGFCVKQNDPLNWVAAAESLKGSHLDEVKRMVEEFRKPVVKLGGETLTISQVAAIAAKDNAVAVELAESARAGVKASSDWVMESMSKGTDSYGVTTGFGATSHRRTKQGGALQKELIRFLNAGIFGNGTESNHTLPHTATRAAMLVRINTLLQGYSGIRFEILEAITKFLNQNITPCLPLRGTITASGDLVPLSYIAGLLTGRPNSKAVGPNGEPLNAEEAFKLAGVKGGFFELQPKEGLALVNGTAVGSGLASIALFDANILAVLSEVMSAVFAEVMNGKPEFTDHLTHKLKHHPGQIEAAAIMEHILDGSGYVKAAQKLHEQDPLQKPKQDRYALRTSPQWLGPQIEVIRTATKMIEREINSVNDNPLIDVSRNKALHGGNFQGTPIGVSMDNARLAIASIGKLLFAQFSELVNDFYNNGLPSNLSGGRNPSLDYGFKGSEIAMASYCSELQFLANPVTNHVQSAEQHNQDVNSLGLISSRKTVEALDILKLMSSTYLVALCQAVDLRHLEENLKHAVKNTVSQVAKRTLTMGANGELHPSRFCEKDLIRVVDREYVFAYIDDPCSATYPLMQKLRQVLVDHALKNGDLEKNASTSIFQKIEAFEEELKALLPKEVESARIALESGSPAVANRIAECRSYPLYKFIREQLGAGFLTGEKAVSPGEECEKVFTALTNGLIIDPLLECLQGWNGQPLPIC
T10 sequence (A0AA49X7F5 1-247): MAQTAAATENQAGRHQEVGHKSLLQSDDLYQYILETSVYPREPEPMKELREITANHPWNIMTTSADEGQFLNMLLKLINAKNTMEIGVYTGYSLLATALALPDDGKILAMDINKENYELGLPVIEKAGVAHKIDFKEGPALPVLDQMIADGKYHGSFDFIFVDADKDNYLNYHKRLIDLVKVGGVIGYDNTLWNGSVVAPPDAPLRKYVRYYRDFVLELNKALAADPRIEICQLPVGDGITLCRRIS

Structure (SMILES): CC(C)(COP(=O)(O)OP(=O)(O)OC[C@H]1O[C@@H](n2cnc3c(N)ncnc32)[C@H](O)[C@@H]1OP(=O)(O)O)[C@@H](O)C(=O)NCCC(=O)NCCSC(=O)/C=C/c1ccc(O)cc1 [4-coumaryl-CoA]
- HPLC-DAD / UPLC-Q-TOF-MS of E. coli culture extract (SpCHS1): providing a sufficient substrate for the catalytic reaction of SpCHS

Structure (SMILES): O=c1cc(-c2ccc(O)cc2)oc2cc(O)cc(O)c12 [AG, apigenin]
- HPLC-DAD / UPLC-Q-TOF-MS product detection (SpF6H1): SpF6H1 produced scutellarein from apigenin, a precursor of hispidulin

Structure (SMILES): O=C(O)/C=C/c1ccccc1 [CiA, cinnamic acid]
- HPLC-DAD / UPLC-Q-TOF-MS product detection (SpC4H): SpC4H was able to catalyze the production of 4-coumaric acid from cinnamic acid

Structure (SMILES): COc1c(O)cc2oc(-c3ccc(O)cc3)cc(=O)c2c1O [HD, hispidulin]
- HPLC-DAD / UPLC-Q-TOF-MS product detection (SpUGT1): SpUGT1, SpUGT2, and SpUGT3 produced homoplantaginin from hispidulin in vitro
- HPLC-DAD / UPLC-Q-TOF-MS product detection (SpUGT2): SpUGT1, SpUGT2, and SpUGT3 produced homoplantaginin from hispidulin in vitro
- HPLC-DAD / UPLC-Q-TOF-MS product detection (SpUGT3): SpUGT1, SpUGT2, and SpUGT3 produced homoplantaginin from hispidulin in vitro

Structure (SMILES): O=C(/C=C/c1ccc(O)cc1)c1c(O)cc(O)cc1O [NC, naringenin chalcone]
- HPLC-DAD / UPLC-Q-TOF-MS product detection (SpCHI): naringenin chalcone was completely consumed in the sample group to generate naringenin

Structure (SMILES): O=C1C[C@@H](c2ccc(O)cc2)Oc2cc(O)cc(O)c21 [NG, naringenin]
- HPLC-DAD / UPLC-Q-TOF-MS product detection (SpFNS): SpFNS produced apigenin from naringenin

Structure (SMILES): N[C@@H](Cc1ccccc1)C(=O)O [Phe, phenylalanine]
- HPLC-DAD / UPLC-Q-TOF-MS product detection (SpPAL): SpPAL can catalyze the formation of cinnamic acid from phenylalanine

Structure (SMILES): O=c1cc(-c2ccc(O)cc2)oc2cc(O)c(O)c(O)c12 [SA, scutellarein]
- HPLC-DAD / UPLC-Q-TOF-MS product detection (SpF6OMT2): SpF6OMT1 and SpF6OMT2 converted scutellarein into hispidulin
- HPLC-DAD / UPLC-Q-TOF-MS product detection (SpF6OMT1): SpF6OMT1 and SpF6OMT2 converted scutellarein into hispidulin
